Starred links: 1 amine or outer side, 2 acyl side, 3 side chain; linkers in the order of their positions; H or OH if unused. Positions of bridges follow the written chain, without caps; N, C: chain ends. Non-standard residues stand in square brackets, D forms with d. Residues, ends and D or L forms follow the SMILES beside them. Groups on a side chain read outwards from the residue. *: point of attachment. X36 = C[N+]1(CCCc2cn(-c3ccc(C[C@H](N[*:1])C(=O)[*:2])cc3)nn2)CCOCC1; X51 = C[N+](C)(C)CCCc1cn(-c2ccc(C[C@H](N[*:1])C(=O)[*:2])cc2)nn1; Me3N+(CH2)2O(CH2)2O(CH2)2CO = C[N+](C)(C)CCOCCOCCC(=O)*; Trp(7-Me) = Cc1cccc2c(C[C@H](N)C(=O)O)c[nH]c12; d(hLys(Me3)) = C[N+](C)(C)CCCCC[C@@H](N)C(=O)O; Hexanoyl(6-NMe3+) = C[N+](C)(C)CCCCCC(=O)*; γGlu = O=C(O)[C@H](CCC(=O)[*:2])N[*:1]; 2Nal = N[C@@H](Cc1ccc2ccccc2c1)C(=O)O; AEF = NCCOc1ccc(C[C@H](N)C(=O)O)cc1; X19 = C[N+](C)(C)C[C@@H](CC(=O)O)N*; dNMeY = CN[C@H](Cc1ccc(O)cc1)C(=O)O; X10 = C[N+](C)(C)C[C@H](CC(=O)O)N*; 3Pal = N[C@@H](Cc1cccnc1)C(=O)O; Myristoyl = CCCCCCCCCCCCCC(=O)*; Lys(Me) = CNCCCC[C@H](N)C(=O)O; NMeK = CN[C@@H](CCCCN)C(=O)O; Pen = CC(C)(S)[C@H](N)C(=O)O; Suc = O=C(CCC(=O)[*:2])[*:1]; αMeK = C[C@](N)(CCCCN)C(=O)O; X88 = COCC[N+](C)(C)CCCC*; Thp = NC1(C(=O)O)CCOCC1; Dap = NC[C@H](N)C(=O)O; X3 = C[N+](C)(C)CCCCC*; AEEA = NCCOCCOCC(=O)O; Me2NCH2CH2 = CN(C)CC*; Sar = CNCC(=O)O
Assay: Exposed Polar Surface Area (EPSA)
Format: physicochemical
Details: SFC on Chirex 3014 column; sample 1 mM DMSO stock; read-out: EPSA
Procedure, shortened: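 Polarity measured by SFC on a Chirex 3014 column (35 °C, 4 mL/min) with methanol/ammonium formate in CO2 as gradient eluent. Retention times were normalised to EPSA (Å^2) against eight reference compounds.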

Row | Compound | EPSA
1 | CC(=O)NCCCC[C@@H]1NC(=O)[C@H](Cc2c[nH]c3c(C)cccc23)NC(=O)[C@H]([C@@H](C)O)NC(=O)[C@H](CC(N)=O)NC(=O)[C@@H](NC(C)=O)C(C)(C)SSC(C)(C)[C@@H](C(=O)N[C@@H](Cc2ccc(OCCN)cc2)C(=O)N[C@@H](Cc2ccc3ccccc3c2)C(=O)N[C@@](C)(CCCCN)C(=O)N[C@@H](CCCCNC(C)=O)C(=O)N[C@@H](CC(N)=O)C(=O)N[C@@H](CC(N)=O)C(=O)N(C)[C@H](Cc2ccc(O)cc2)C(N)=O)NC1=O [compound 13, MeCO-Pen(3)-N-T-7MeW-K(Ac)-Pen(3)-AEF-2Nal-aMeK-K(Ac)-N-N-NMeDTyr-CONH2] (Ac-[Pen]NT[Trp(7-Me)]K(Ac)[Pen][AEF][2Nal][αMeK]K(Ac)NN[dNMeY]-NH2; disulfide 1-6) | 174 A^2
2 | CC(=O)NCCCC[C@@H]1NC(=O)[C@H](Cc2c[nH]c3c(C)cccc23)NC(=O)[C@H]([C@@H](C)O)NC(=O)[C@H](CC(N)=O)NC(=O)[C@@H](NC(C)=O)C(C)(C)SSC(C)(C)[C@@H](C(=O)N[C@@H](Cc2ccc(OCCN)cc2)C(=O)N[C@@H](Cc2ccc3ccccc3c2)C(=O)N[C@@](C)(CCCCN)C(=O)N[C@@H](CCCCNC(C)=O)C(=O)N[C@@H](CC(N)=O)C(=O)N[C@H](Cc2c[nH]cn2)C(=O)N(C)[C@H](Cc2ccc(O)cc2)C(N)=O)NC1=O [compound 26, MeCO-Pen(3)-N-T-7MeW-K(Ac)-Pen(3)-AEF-2Nal-aMeK-K(Ac)-N-h-NMeDTyr-CONH2] (Ac-[Pen]NT[Trp(7-Me)]K(Ac)[Pen][AEF][2Nal][αMeK]K(Ac)N[dH][dNMeY]-NH2; disulfide 1-6 (inferred)) | 148 A^2
3 | CC(=O)NCCCC[C@@H]1NC(=O)[C@H](Cc2c[nH]c3c(C)cccc23)NC(=O)[C@H]([C@@H](C)O)NC(=O)[C@H](CC(N)=O)NC(=O)[C@@H](NC(=O)[C@@H](CCCNC(=N)N)NC(C)=O)C(C)(C)SSC(C)(C)[C@@H](C(=O)N[C@@H](Cc2ccc(OCCN)cc2)C(=O)N[C@@H](Cc2ccc3ccccc3c2)C(=O)N[C@@](C)(CCCCN)C(=O)N[C@@H](CCC(=O)O)C(=O)N[C@@H](CC(N)=O)C(=O)N[C@@H](Cc2c[nH]cn2)C(=O)N(C)[C@H](Cc2ccc(O)cc2)C(N)=O)NC1=O [compound 9, MeCO-r-Pen(3)-N-T-7MeW-K(Ac)-Pen(3)-AEF-2Nal-aMeK-E-N-H-NMeDTyr-CONH2] (Ac-[dR][Pen]NT[Trp(7-Me)]K(Ac)[Pen][AEF][2Nal][αMeK]ENH[dNMeY]-NH2; disulfide 2-7) | 187 A^2
4 | CC(=O)NCCCC[C@@H]1NC(=O)[C@H](Cc2c[nH]c3c(C)cccc23)NC(=O)[C@H]([C@@H](C)O)NC(=O)[C@H](CC(N)=O)NC(=O)[C@@H](NC(C)=O)C(C)(C)SSC(C)(C)[C@@H](C(=O)N[C@@H](Cc2ccc(OCCN)cc2)C(=O)N[C@@H](Cc2ccc3ccccc3c2)C(=O)NC2(C(=O)N[C@@H](CCCCNC(=O)CCC(=O)N[C@H](CC(=O)O)C[N+](C)(C)C)C(=O)N[C@@H](CC(N)=O)C(=O)N[C@@H](Cc3cccnc3)C(=O)N(C)CC(N)=O)CCOCC2)NC1=O [compound 109] (Ac-[Pen]NT[Trp(7-Me)]K(Ac)[Pen][AEF][2Nal][Thp]K([Suc-X19])N[3Pal][Sar]-NH2; disulfide 1-6) | 171 A^2
5 | CC(=O)NCCCC[C@@H]1NC(=O)[C@H](Cc2c[nH]c3c(C)cccc23)NC(=O)[C@H]([C@@H](C)O)NC(=O)[C@H](CC(N)=O)NC(=O)[C@@H](NC(=O)[C@@H](CCCCNC(=O)CCC(=O)N[C@@H](CC(=O)O)C[N+](C)(C)C)NC(C)=O)C(C)(C)SSC(C)(C)[C@@H](C(=O)N[C@@H](Cc2ccc(OCCN)cc2)C(=O)N[C@@H](Cc2ccc3ccccc3c2)C(=O)NC2(C(=O)N[C@@H](CCCCNC(C)=O)C(=O)N[C@@H](CC(N)=O)C(=O)N[C@@H](Cc3cccnc3)C(=O)N(C)CC(N)=O)CCOCC2)NC1=O [compound 108] (Ac-[dK]([Suc-X10])[Pen]NT[Trp(7-Me)]K(Ac)[Pen][AEF][2Nal][Thp]K(Ac)N[3Pal][Sar]-NH2; disulfide 2-7) | 173 A^2

Now from value to compound:

Row | EPSA | Compound
6 | 167 A^2 | CC(=O)NCCCC[C@@H]1NC(=O)[C@H](Cc2c[nH]c3c(C)cccc23)NC(=O)[C@H]([C@@H](C)O)NC(=O)[C@H](CC(N)=O)NC(=O)[C@@H](NC(=O)CCOCCOCC[N+](C)(C)C)C(C)(C)SSC(C)(C)[C@@H](C(=O)N[C@@H](Cc2ccc(-n3cc(CCC[N+]4(C)CCOCC4)nn3)cc2)C(=O)N[C@@H](Cc2ccc3ccccc3c2)C(=O)NC2(C(=O)N[C@@H](CCCCNC(C)=O)C(=O)N[C@@H](CC(N)=O)C(=O)N[C@@H](Cc3cccnc3)C(=O)N(C)CC(N)=O)CCOCC2)NC1=O [compound 439, cPEG3aCO-Pen(3)-N-T-7MeW-K(Ac)-Pen(3)-F(4TzlMMo3)-2Nal-THP-K(Ac)-N-3Pya-Sar-CONH2] ({Me3N+(CH2)2O(CH2)2O(CH2)2CO}-[Pen]NT[Trp(7-Me)]K(Ac)[Pen][X36][2Nal][Thp]K(Ac)N[3Pal][Sar]-NH2; disulfide 1-6)
7 | 139 A^2 | COCC[N+](C)(C)CCCCOc1ccc(C[C@H](NC(=O)[C@H]2NC(=O)[C@H](CCCCN(C)C(C)=O)NC(=O)[C@H](Cc3c[nH]c4c(C)cccc34)NC(=O)[C@H]([C@@H](C)O)NC(=O)[C@H](CC(=O)N(C)C)NC(=O)[C@@H](NC(=O)CCOCCOCC[N+](C)(C)C)C(C)(C)SSC2(C)C)C(=O)N[C@@H](Cc2ccc3ccccc3c2)C(=O)NC2(C(=O)N[C@@H](CCCCN(C)C(C)=O)C(=O)N[C@@H](CC(N)=O)C(=O)N[C@@H](Cc3cccnc3)C(=O)N(C)CC(=O)N(C)C)CCOCC2)cc1 [compound 227, cPEG3aCO-Pen(3)-N(N(Me)2)-T-7MeW-K(NMeAc)-Pen(3)-mPEG2TMA4F-2Nal-THP-K(NMeAc)-N-3Pya-Sar-CON(Me)2] ({Me3N+(CH2)2O(CH2)2O(CH2)2CO}-[Pen]D(NMe2)T[Trp(7-Me)][Lys(Me)](Ac)[Pen]Y(X88)[2Nal][Thp][Lys(Me)](Ac)N[3Pal][Sar]-NMe2; disulfide 1-6)
8 | 155 A^2 | CC(=O)N(C)CCCC[C@@H]1NC(=O)[C@H](Cc2c[nH]c3c(C)cccc23)NC(=O)[C@H]([C@@H](C)O)NC(=O)[C@H](CC(=O)N(C)C)NC(=O)[C@@H](NC(=O)CCOCCOCC[N+](C)(C)C)C(C)(C)SSC(C)(C)[C@@H](C(=O)N[C@@H](Cc2ccc(-n3cc(CCC[N+](C)(C)C)nn3)cc2)C(=O)N[C@@H](Cc2ccc3ccccc3c2)C(=O)NC2(C(=O)N[C@@H](CCCCN(C)C(C)=O)C(=O)N[C@@H](CC(N)=O)C(=O)N[C@@H](Cc3cccnc3)C(=O)N(C)CC(=O)N(C)C)CCOCC2)NC1=O [compound 334, cPEG3aCO-Pen(3)-N(N(Me)2)-T-7MeW-K(NMeAc)-Pen(3)-F(4TzlTMA3)-2Nal-THP-K(NMeAc)-N-3Pya-Sar-CON(Me)2] ({Me3N+(CH2)2O(CH2)2O(CH2)2CO}-[Pen]D(NMe2)T[Trp(7-Me)][Lys(Me)](Ac)[Pen][X51][2Nal][Thp][Lys(Me)](Ac)N[3Pal][Sar]-NMe2; disulfide 1-6 (inferred))
9 | 176 A^2 | CCCCCCCCCCCCCC(=O)N[C@@H](CCC(=O)NCCOCCOCC(=O)NCCOCCOCC(=O)NCCCC[C@H](NC(=O)C1(NC(=O)[C@H](Cc2ccc3ccccc3c2)NC(=O)[C@H](Cc2ccc(OCCCCC[N+](C)(C)C)cc2)NC(=O)[C@H]2NC(=O)[C@H](CCCCN(C)C(C)=O)NC(=O)[C@H](Cc3c[nH]c4c(C)cccc34)NC(=O)[C@H]([C@@H](C)O)NC(=O)[C@H](CC(=O)N(C)C)NC(=O)[C@@H](NC(=O)[C@@H](CCCCC[N+](C)(C)C)NC(=O)COCCOCCNC(=O)COCCOCCNC(=O)CC[C@H](NC(=O)CCCCCCCCCCCCC)C(=O)O)C(C)(C)SSC2(C)C)CCOCC1)C(=O)N[C@@H](CC(N)=O)C(=O)N[C@@H](Cc1cccnc1)C(=O)N(C)CC(=O)N(C)C)C(=O)O [compound 376, C14gEPEG2PEG2CO-hk(Me)3-Pen(3)-N(N(Me)2)-T-7MeW-K(NMeAc)-Pen(3)-TMAPF-2Nal-THP-K(PEG2PEG2gEC14)-N-3Pya-Sar-CON(Me)2] ({Myristoyl-γGlu-AEEA-AEEA}-[d(hLys(Me3))][Pen]D(NMe2)T[Trp(7-Me)][Lys(Me)](Ac)[Pen]Y(X3)[2Nal][Thp]K([AEEA-AEEA-γGlu-Myristoyl])N[3Pal][Sar]-NMe2; disulfide 2-7)
10 | 187 A^2 | CCCCCCCCCCCCCC(=O)N[C@@H](CCC(=O)NCCOCCOCC(=O)NCCOCCOCC(=O)NCCCC[C@@H](NC(=O)CCOCCOCC[N+](C)(C)C)C(=O)N[C@@H]1C(=O)N[C@@H](CC(=O)N(C)C)C(=O)N[C@@H]([C@@H](C)O)C(=O)N[C@@H](Cc2c[nH]c3c(C)cccc23)C(=O)N[C@@H](CCCCNC(C)=O)C(=O)N[C@H](C(=O)N[C@@H](Cc2ccc(OCCCCC[N+](C)(C)C)cc2)C(=O)N[C@@H](Cc2ccc3ccccc3c2)C(=O)NC2(C(=O)N[C@@H](CCCCN(C)C(C)=O)C(=O)N[C@@H](CC(N)=O)C(=O)N[C@@H](Cc3cccnc3)C(=O)N(C)[C@@H](CCCCNC(=O)COCCOCCNC(=O)COCCOCCNC(=O)CC[C@H](NC(=O)CCCCCCCCCCCCC)C(=O)O)C(N)=O)CCOCC2)C(C)(C)SSC1(C)C)C(=O)O [compound 347, cPEG3aCO-k(PEG2PEG2gEC14)-Pen(3)-N(N(Me)2)-T-7MeW-K(Ac)-Pen(3)-TMAPF-2Nal-THP-K(NMeac)-N-3Pya-NMeK(PEG2PEG2gEC14)-CONH2] ({Me3N+(CH2)2O(CH2)2O(CH2)2CO}-[dK]([AEEA-AEEA-γGlu-Myristoyl])[Pen]D(NMe2)T[Trp(7-Me)]K(Ac)[Pen]Y(X3)[2Nal][Thp][Lys(Me)](Ac)N[3Pal][NMeK]([AEEA-AEEA-γGlu-Myristoyl])-NH2; disulfide 2-7)
11 | 151 A^2 | CC(=O)NC[C@H](NC(=O)C1(NC(=O)[C@H](Cc2ccc3ccccc3c2)NC(=O)[C@H](Cc2ccc(OCCN(C)C)cc2)NC(=O)[C@H]2NC(=O)[C@H](CCCCN(C)C(C)=O)NC(=O)[C@H](Cc3c[nH]c4c(C)cccc34)NC(=O)[C@H]([C@@H](C)O)NC(=O)[C@H](CC(=O)N(C)C)NC(=O)[C@@H](NC(=O)CCCCC[N+](C)(C)C)C(C)(C)SSC2(C)C)CCOCC1)C(=O)N[C@@H](CC(N)=O)C(=O)N[C@@H](Cc1cccnc1)C(=O)N(C)CC(=O)N(C)C [compound 133, 5cpaCO-Pen(3)-N(N(Me)2)-T-7MeW-K(NMeAc)-Pen(3)-AEF(N(Me)2)-2Nal-THP-Dap(Ac)-N-3Pya-Sar-CON(Me)2] ({Hexanoyl(6-NMe3+)}-[Pen]D(NMe2)T[Trp(7-Me)][Lys(Me)](Ac)[Pen]Y(Me2NCH2CH2)[2Nal][Thp][Dap](Ac)N[3Pal][Sar]-NMe2; disulfide 1-6 (inferred))
